{"source": "PubChem BioAssay AID1259407", "about": "(Chemical Carcinogenesis Research Information System (CCRIS), 2018)", "tested_on": "CCRIS mutagenicity, Ames/micronucleus/aberration tests", "assay": "CCRIS mutagenicity studies", "key": {"[1]": {"conditions": "Test System: AMES SALMONELLA TYPHIMURIUM, Strain/Indicator: TA98, Metabolic Activation: NONE, Method: PREINCUBATION"}, "[2]": {"conditions": "Test System: AMES SALMONELLA TYPHIMURIUM, Strain/Indicator: TA100, Metabolic Activation: NONE, Method: STANDARD PLATE"}, "[3]": {"conditions": "Test System: AMES SALMONELLA TYPHIMURIUM, Strain/Indicator: TA1535, Metabolic Activation: NONE, Method: STANDARD PLATE"}, "[4]": {"conditions": "Test System: AMES SALMONELLA TYPHIMURIUM, Strain/Indicator: TA1538, Metabolic Activation: NONE, Method: STANDARD PLATE"}}, "note": "Activity calls are given as the source filed them. The rule behind the calls is not given here."}
{"smiles": "C#CCNC(=NCCSCc1nc[nH]c1C)NC#N", "values": [{"measurement": "mutagenic call", "setting": "[1]", "value": "inactive; negative"}, {"measurement": "mutagenic call", "setting": "Test System: AMES SALMONELLA TYPHIMURIUM, Strain/Indicator: TA98, Metabolic Activation: RAT, LIVER, S-9, SODIUM PHENOBARBITAL AND BETA-NAPHTHOFLAVONE, Method: PREINCUBATION", "value": "inactive; negative"}, {"measurement": "mutagenic call", "setting": "Test System: AMES SALMONELLA TYPHIMURIUM, Strain/Indicator: TA100, Metabolic Activation: NONE, Method: PREINCUBATION", "value": "inactive; negative"}, {"measurement": "mutagenic call", "setting": "Test System: AMES SALMONELLA TYPHIMURIUM, Strain/Indicator: TA100, Metabolic Activation: RAT, LIVER, S-9, SODIUM PHENOBARBITAL AND BETA-NAPHTHOFLAVONE, Method: PREINCUBATION", "value": "inactive; negative"}, {"measurement": "mutagenic call", "setting": "Test System: AMES SALMONELLA TYPHIMURIUM, Strain/Indicator: TA1535, Metabolic Activation: NONE, Method: PREINCUBATION", "value": "inactive; negative"}, {"measurement": "mutagenic call", "setting": "Test System: AMES SALMONELLA TYPHIMURIUM, Strain/Indicator: TA1535, Metabolic Activation: RAT, LIVER, S-9, SODIUM PHENOBARBITAL AND BETA-NAPHTHOFLAVONE, Method: PREINCUBATION", "value": "inactive; negative"}, {"measurement": "mutagenic call", "setting": "Test System: AMES SALMONELLA TYPHIMURIUM, Strain/Indicator: TA1537, Metabolic Activation: NONE, Method: PREINCUBATION", "value": "inactive; negative"}, {"measurement": "mutagenic call", "setting": "Test System: AMES SALMONELLA TYPHIMURIUM, Strain/Indicator: TA1537, Metabolic Activation: RAT, LIVER, S-9, SODIUM PHENOBARBITAL AND BETA-NAPHTHOFLAVONE, Method: PREINCUBATION", "value": "inactive; negative"}, {"measurement": "mutagenic call", "setting": "Test System: AMES SALMONELLA TYPHIMURIUM, Strain/Indicator: TA1538, Metabolic Activation: NONE, Method: PREINCUBATION", "value": "inactive; negative"}, {"measurement": "mutagenic call", "setting": "Test System: AMES SALMONELLA TYPHIMURIUM, Strain/Indicator: TA1538, Metabolic Activation: RAT, LIVER, S-9, SODIUM PHENOBARBITAL AND BETA-NAPHTHOFLAVONE, Method: PREINCUBATION", "value": "inactive; negative"}, {"measurement": "mutagenic call", "setting": "Test System: CHINESE HAMSTER V-79, Strain/Indicator: V-79/6-THIOGUANINE, Metabolic Activation: NONE, Method: STANDARD PLATE", "value": "inactive; negative"}, {"measurement": "mutagenic call", "setting": "Test System: CHINESE HAMSTER V-79, Strain/Indicator: V-79/6-THIOGUANINE, Metabolic Activation: RAT, LIVER, S-9, SODIUM PHENOBARBITAL AND BETA-NAPHTHOFLAVONE, Method: STANDARD PLATE", "value": "inactive; negative"}, {"measurement": "mutagenic call", "setting": "Test System: CHINESE HAMSTER V-79, Strain/Indicator: V-79/OUABAIN, Metabolic Activation: NONE, Method: STANDARD PLATE", "value": "inactive; negative"}, {"measurement": "mutagenic call", "setting": "Test System: CHINESE HAMSTER V-79, Strain/Indicator: V-79/OUABAIN, Metabolic Activation: RAT, LIVER, S-9, SODIUM PHENOBARBITAL AND BETA-NAPHTHOFLAVONE, Method: STANDARD PLATE", "value": "inactive; negative"}, {"measurement": "mutagenic call", "setting": "Test System: E. COLI, Strain/Indicator: WP2 (PKM101), Metabolic Activation: NONE, Method: PREINCUBATION", "value": "inactive; negative"}, {"measurement": "mutagenic call", "setting": "Test System: E. COLI, Strain/Indicator: WP2 (PKM101), Metabolic Activation: RAT, LIVER, S-9, SODIUM PHENOBARBITAL AND BETA-NAPHTHOFLAVONE, Method: PREINCUBATION", "value": "inactive; negative"}, {"measurement": "mutagenic call", "setting": "Test System: E. COLI, Strain/Indicator: WP2, Metabolic Activation: NONE, Method: PREINCUBATION", "value": "inactive; negative"}, {"measurement": "mutagenic call", "setting": "Test System: E. COLI, Strain/Indicator: WP2, Metabolic Activation: RAT, LIVER, S-9, SODIUM PHENOBARBITAL AND BETA-NAPHTHOFLAVONE, Method: PREINCUBATION", "value": "inactive; negative"}, {"measurement": "mutagenic call", "setting": "Test System: E. COLI, Strain/Indicator: WP2 UVRA (PKM101), Metabolic Activation: NONE, Method: PREINCUBATION", "value": "inactive; negative"}, {"measurement": "mutagenic call", "setting": "Test System: E. COLI, Strain/Indicator: WP2 UVRA (PKM101), Metabolic Activation: RAT, LIVER, S-9, SODIUM PHENOBARBITAL AND BETA-NAPHTHOFLAVONE, Method: PREINCUBATION", "value": "inactive; negative"}, {"measurement": "mutagenic call", "setting": "Test System: E. COLI, Strain/Indicator: WP2 UVRA, Metabolic Activation: NONE, Method: PREINCUBATION", "value": "inactive; negative"}, {"measurement": "mutagenic call", "setting": "Test System: E. COLI, Strain/Indicator: WP2 UVRA, Metabolic Activation: RAT, LIVER, S-9, SODIUM PHENOBARBITAL AND BETA-NAPHTHOFLAVONE, Method: PREINCUBATION", "value": "inactive; negative"}]}
{"smiles": "CC(=O)OCc1ccc2ccc3cccc4ccc1c2c34", "values": [{"measurement": "mutagenic call", "setting": "[1]", "value": "active; positive"}]}
{"smiles": "Cc1c(N)cc(N)cc1N", "values": [{"measurement": "mutagenic call", "setting": "Test System: CHINESE HAMSTER CELLS, Strain/Indicator: CHO CELLS(HPRT)/6-THIOGUANINE, Metabolic Activation: NONE, Method: SUSPENSION/PLATE", "value": "active; positive"}, {"measurement": "mutagenic call", "setting": "Test System: CHINESE HAMSTER CELLS, Strain/Indicator: CHO CELLS(HPRT)/6-THIOGUANINE, Metabolic Activation: RAT LIVER S-9, AROCLOR 1254, Method: SUSPENSION/PLATE", "value": "inactive; negative"}]}
{"smiles": "CC(=O)OCc1cc(C(C)=O)ccc1OC(C)=O", "values": [{"measurement": "mutagenic call", "setting": "Test System: AMES SALMONELLA TYPHIMURIUM, Strain/Indicator: TA100(PKM101), Metabolic Activation: NONE, Method: STANDARD PLATE", "value": "active; positive"}, {"measurement": "mutagenic call", "setting": "[2]", "value": "active; positive"}, {"measurement": "mutagenic call", "setting": "[3]", "value": "inactive; negative"}, {"measurement": "mutagenic call", "setting": "[4]", "value": "inactive; negative"}, {"measurement": "mutagenic call", "setting": "Test System: E. COLI, Strain/Indicator: TK701(PKM101), Metabolic Activation: NONE, Method: STANDARD PLATE", "value": "active; positive"}, {"measurement": "mutagenic call", "setting": "Test System: E. COLI, Strain/Indicator: TK701, Metabolic Activation: NONE, Method: STANDARD PLATE", "value": "active; positive"}, {"measurement": "mutagenic call", "setting": "Test System: E. COLI, Strain/Indicator: TK702(PKM101), Metabolic Activation: NONE, Method: STANDARD PLATE", "value": "active; positive"}, {"measurement": "mutagenic call", "setting": "Test System: E. COLI, Strain/Indicator: TK702, Metabolic Activation: NONE, Method: STANDARD PLATE", "value": "inactive; negative"}]}
{"smiles": "O[C@H]1C=Cc2c(cc3c4c(c5ccccc5cc24)-c2ccccc2-3)[C@@H]1O", "values": [{"measurement": "mutagenic call", "setting": "Test System: AMES SALMONELLA TYPHIMURIUM, Strain/Indicator: TA100, Metabolic Activation: MOUSE, LIVER, S-9, 3-METHYLCHOLANTHRENE, Method: STANDARD PLATE", "value": "active; positive"}, {"measurement": "mutagenic call", "setting": "Test System: AMES SALMONELLA TYPHIMURIUM, Strain/Indicator: TA100, Metabolic Activation: RAT, LIVER, S-9, 3-METHYLCHOLANTHRENE, Method: STANDARD PLATE", "value": "active; positive"}]}
{"smiles": "COc1cc(CCC(C)=O)ccc1O", "values": [{"measurement": "mutagenic call", "setting": "Test System: AMES SALMONELLA TYPHIMURIUM, Strain/Indicator: TA98, Metabolic Activation: NONE, Method: STANDARD PLATE", "value": "inactive; negative"}, {"measurement": "mutagenic call", "setting": "Test System: AMES SALMONELLA TYPHIMURIUM, Strain/Indicator: TA98, Metabolic Activation: RAT, LIVER, S-9, AROCLOR 1254, Method: STANDARD PLATE", "value": "inactive; negative"}, {"measurement": "mutagenic call", "setting": "[2]", "value": "inactive; negative"}, {"measurement": "mutagenic call", "setting": "Test System: AMES SALMONELLA TYPHIMURIUM, Strain/Indicator: TA100, Metabolic Activation: RAT, LIVER, S-9, AROCLOR 1254, Method: STANDARD PLATE", "value": "inactive; negative"}, {"measurement": "mutagenic call", "setting": "[3]", "value": "inactive; negative"}, {"measurement": "mutagenic call", "setting": "Test System: AMES SALMONELLA TYPHIMURIUM, Strain/Indicator: TA1535, Metabolic Activation: RAT, LIVER, S-9, AROCLOR 1254, Method: STANDARD PLATE", "value": "inactive; negative"}, {"measurement": "mutagenic call", "setting": "[4]", "value": "inactive; negative"}, {"measurement": "mutagenic call", "setting": "Test System: AMES SALMONELLA TYPHIMURIUM, Strain/Indicator: TA1538, Metabolic Activation: RAT, LIVER, S-9, AROCLOR 1254, Method: STANDARD PLATE", "value": "inactive; negative"}, {"measurement": "mutagenic call", "setting": "Test System: E. COLI, Strain/Indicator: CM561 LEXA, Metabolic Activation: NONE, Method: STANDARD PLATE", "value": "inactive; negative"}, {"measurement": "mutagenic call", "setting": "Test System: E. COLI, Strain/Indicator: CM611 UVRA/LEXA, Metabolic Activation: NONE, Method: STANDARD PLATE", "value": "inactive; negative"}, {"measurement": "mutagenic call", "setting": "Test System: E. COLI, Strain/Indicator: WP2 UVRA, Metabolic Activation: NONE, Method: STANDARD PLATE", "value": "inactive; negative"}]}
{"smiles": "CN(C)C(=N)N=C(N)N", "values": [{"measurement": "mutagenic call", "setting": "End Point: In vivo micronucleus, Test System: Bone marrow erythrocytes, Species: Mouse, Strain/Sex: Swiss albino/Male, Route: Oral", "value": "inactive; negative"}]}
